From article PMC6974622, “DeepMalaria: Artificial Intelligence Driven Discovery of Potent Antiplasmodials” (Frontiers in Pharmacology, 2020)
Entries after “also recorded” stand apart in the source; their conditions may differ. Structures can show the parent of a compound that is named as a salt.

test system: 3D7; experiment: not given; parameters: unit not given here; settings: cited from earlier work

Molecule	3D7
O=P1(N(CCCl)CCCl)NCCCO1 (stereo not shown) [Cyclophosphamide]	56.2
CN1CCN(CCCN2c3ccccc3Sc3ccc(Cl)cc32)CC1 [Prochlorperazine edisylate]	73.3

same assay, conditions: repurposing dataset, 179 approved drugs; ref https://www.nature.com/articles/nchembio806; cited from earlier work

Molecule	3D7
COc1ccc(C[C@H]2NC[C@H](O)[C@H]2OC(C)=O)cc1 [Anisomycin]	97
N=C(N)NC(=O)c1nc(Cl)c(N)nc1N [Amiloride]	73.2
CN(CCCCCCCCCCN(C)C(=O)Oc1cccc([N+](C)(C)C)c1)C(=O)Oc1cccc([N+](C)(C)C)c1 [Demecarium bromide]	95.9
O.O.O.O=C([O-])[C@H]([O-])[C@@H]([O-])C(=O)[O-].O=C([O-])[C@H]([O-])[C@@H]([O-])C(=O)[O-].[K+].[K+].[Sb+3].[Sb+3] [Potassium antimonyl tartrate]	95.5
O=C1[O][Pt]2([NH][C@@H]3CCCC[C@H]3[NH]2)[O]C1=O [Oxaliplatin]	55.4
C[C@@H]1CC[C@H]2[C@@H](C)C(=O)O[C@@H]3O[C@@]4(C)CC[C@@H]1[C@]32OO4 [Artemisinin]	99.1
CN(C)c1ccc(C(=C2C=CC(=[N+](C)C)C=C2)c2ccc(N(C)C)cc2)cc1 [Gentian violet]	98.7
N=C1C=CC(=C(c2ccc(N)cc2)c2ccc(N)cc2)C=C1 [Pararosaniline pamoate]	97.3
CO[C@@H]1[C@H](OC(=O)NC(=O)CCl)CC[C@]2(CO2)[C@H]1[C@@]1(C)O[C@@H]1CC=C(C)C [TNP-470]	67
CN1CCc2c(c3ccccc3n2Cc2ccccc2)C1 [Mebhydrolin]	57.1
CCN(CCO)CCCC(C)Nc1ccnc2cc(Cl)ccc12 (stereo not shown) [Hydroxychloroquine]	97.7
Cc1cc(C(C)(C)CC(C)(C)C)ccc1OCCOCC[N+](C)(C)Cc1ccccc1.[Cl-] [Methylbenzethonium chloride]	97.7
C[C@@H]1[C@H](O)[C@@H](C)/C=C/C=C/C=C/C=C/C=C/C=C/C=C/[C@H](O[C@@H]2O[C@H](C)[C@@H](O)[C@H](N)[C@@H]2O)C[C@@H]2O[C@](O)(C[C@@H](O)C[C@@H](O)[C@H](O)CC[C@@H](O)C[C@@H](O)CC(=O)O[C@H]1C)C[C@H](O)[C@H]2C(=O)O [Amphotericin B]	59.2
CC(=O)O[C@H]1C[C@@H]2CC[C@@H]3[C@H](CC[C@@]4(C)[C@H]3C[C@H]([N+]3(C)CCCCC3)[C@@H]4OC(C)=O)[C@@]2(C)C[C@@H]1[N+]1(C)CCCCC1 [Pancuronium bromide]	52.6
C1CCC(C(CC2CCCCN2)C2CCCCC2)CC1.O=C(O)/C=C\C(=O)O (stereo not shown) [Perhexilline maleate]	97.5
CC[C@]1(O)C[C@@H]2CN(CCc3c([nH]c4ccccc34)[C@@](C(=O)OC)(c3cc4c(cc3OC)N(C)[C@H]3[C@@](O)(C(=O)OC)[C@H](OC(C)=O)[C@]5(CC)C=CCN6CC[C@]43[C@@H]65)C2)C1 [Vinblastine]	66.7

Molecule	3D7
CC(=O)c1ccc2c(c1)N(CCCN1CCC(CCO)CC1)c1ccccc1S2 [Piperacetazine]	88.5
CN1C[C@H](C(=O)N[C@]2(C)O[C@@]3(O)[C@@H]4CCCN4C(=O)[C@H](Cc4ccccc4)N3C2=O)C[C@@H]2c3cccc4[nH]cc(c34)C[C@H]21 [Dihydroergotamine mesylate]	88.1
CC[C@H]1OC(=O)[C@H](C)[C@@H](O[C@H]2C[C@@](C)(OC)[C@@H](O)[C@H](C)O2)[C@H](C)[C@@H](O[C@@H]2O[C@H](C)C[C@H](N(C)C)[C@H]2O)[C@](C)(O)C[C@@H](C)CN(C)[C@H](C)[C@@H](O)[C@]1(C)O [Azithromycin]	80.2
COc1cc2nc(N3CCN(C(=O)C4COc5ccccc5O4)CC3)nc(N)c2cc1OC (stereo not shown) [Doxazosin mesylate]	96.4
CCC(=O)O[C@]1(C(=O)CCl)[C@@H](C)C[C@H]2[C@@H]3CCC4=CC(=O)C=C[C@]4(C)[C@@]3(F)[C@@H](O)C[C@@]21C [Clobetasol propionate]	86
CCOC(=O)NC1=C(N2CC2)C(=O)C(NC(=O)OCC)=C(N2CC2)C1=O [Diaziquone]	97.3
S=c1[nH]cnc2nc[nH]c12 [Mercaptopurine]	91.8
O=c1oc2c(O)c(O)cc3c(=O)oc4c(O)c(O)cc1c4c23 [Ellagic acid]	87.1
Brilliant green	93.5
O=c1[nH]c2ccccc2n1CCCN1CCC(n2c(=O)[nH]c3cc(Cl)ccc32)CC1 [Domperidone]	82.2
N[C@@H](Cc1ccc(N(CCCl)CCCl)cc1)C(=O)O [Melphalan]	59.5
CCC(=O)c1ccc2c(c1)N(CC(C)N(C)C)c1ccccc1S2.O=C(O)/C=C\C(=O)O (stereo not shown) [Propiomazine maleate]	77
CN1[C@@H]2CC[C@H]1C[C@@H](OC(c1ccccc1)c1ccccc1)C2 [Benztropine mesylate]	70.6
Nc1c2ccccc2nc2ccccc12 [Aminacrine]	97.6
Fc1ccc([C@@H]2CCNC[C@H]2COc2ccc3c(c2)OCO3)cc1 [Paroxetine]	85.4
COc1cc(NC(C)CCCN)c2ncccc2c1 (stereo not shown) [Primaquine]	99.1

test system: multidrug resistant P. falciparum strain Dd2; experiment: SYBR Green I Plasmodium growth inhibition assay (fixed concentration screen and EC50); format: cell-based, Plasmodium falciparum; settings: Plasmodium falciparum; Pf Dd2, 1 µM, 72 h; read-out: Inhibition One-point (%)
Procedure: P. falciparum cultures were maintained under standard culture conditions in RPMI 1640 medium supplemented with 25 mM HEPES, pH 7.4, 26 mM NaHCO3, 2% dextrose, 15 mg/L hypoxanthine, 25 mg/L gentamycin, and 0.5% Albumax II maintained at 37°C in 5% CO2 and 95% air. Initially, a fixed concentration phenotypic screening was performed against multidrug resistant P. falciparum strain Dd2 (resistant to chloroquine, pyrimethamine, and mefloquine) using a SYBR Green I assay ([Johnson et al., 2007]; [Vossen et al., 2010]). An EVO-150 robotic liquid handler (Tecan, Morrisville, NC) was used to aliquot compounds at a final concentration of 1 µM followed by addition of culture to 96-well plates (Greiner, Monroe, NC) at 1% parasitemia, 2% hematocrit. Plates were incubated for 72 h at 37°C in a humidified atmosphere 5% CO2/95% air prior to freezing. Plates were subsequently thawed and 1X SYBR Green I was added with lysis buffer (20 mM Tris-HCl, 0.08% saponin, 5 mM EDTA, 0.8% Triton X-100). After incubation at room temperature in dark for 1 h, the fluorescent emission was measured at excition and emission wavelengths of 485 nm and 530 nm, respectively, using a BioTek Synergy neo2 (Winooski, VT) plate reader. […] Curve fitting was performed using GraphPad Prism and EC50 value was determined for each compound.

Molecule	inhibition at 1 µM [%]
CN1CCOc2ccccc2CCCCCC2(CCN(C(=O)[C@@H](N)c3ccccc3)CC2)C1=O [DC-9235, CN1CCOC2=C(CCCCCC3(CCN(CC3)C(=O)[C@@H](N)C3=CC=CC=C3)C1=O)C=CC=C2]	92
Cc1cc(C)n(Cc2c(C(=O)N3CCC4(CCCCOC[C@@H]5CCCN5C(=O)c5cccc(c5)OC4)CC3)noc2C)n1 [DC-5921, CC1=NN(CC2=C(C)ON=C2C(=O)N2CCC3(CC2)CCCCOC[C@@H]2CCCN2C(=O)C2=CC(OC3)=CC=C2)C(C)=C1]	90
CN1CCOc2ccccc2CCCCCC2(CCN(C(=O)[C@H](N)c3ccccc3)CC2)C1=O [DC-9239, CN1CCOC2=C(CCCCCC3(CCN(CC3)C(=O)[C@H](N)C3=CC=CC=C3)C1=O)C=CC=C2]	79
CCc1nc2ccccc2c(C(=O)N2CCC3(CCCCOCCNC(=O)c4ccccc4OC3)CC2)c1C [DC-5931, CCC1=NC2=C(C=CC=C2)C(C(=O)N2CCC3(CC2)CCCCOCCNC(=O)C2=C(OC3)C=CC=C2)=C1C]	80

same assay, conditions: Plasmodium falciparum; Pf Dd2, 72 h; spread given in nM

Molecule	EC50 [nM]
Cc1cc(C)n(Cc2c(C(=O)N3CCC4(CCCCOC[C@@H]5CCCN5C(=O)c5cccc(c5)OC4)CC3)noc2C)n1 [DC-5921, CC1=NN(CC2=C(C)ON=C2C(=O)N2CCC3(CC2)CCCCOC[C@@H]2CCCN2C(=O)C2=CC(OC3)=CC=C2)C(C)=C1]	0.9

same assay, conditions: test dataset (macrocyclic library), class label, 1 µM

Molecule	DD2
Cn1cnnc1C1CCCCN1C(=O)CN1CCC2(CCCCc3ccccc3OCCCNC2=O)CC1 (stereo not shown)	0 (zero if otherwise)
Cc1noc(C2CCCN2C(=O)CN2CCC3(CCCCc4ccccc4OCCCNC3=O)CC2)n1 (stereo not shown)	0 (zero if otherwise)
CC(=O)N1CCCN(Cc2ccccc2)CCN(C(=O)c2ccccc2F)Cc2cc(F)c(F)cc21	0 (zero if otherwise)
C[C@H]1C(=O)NCCOc2ccccc2C(=O)N[C@H](C(=O)NCCCc2ccccc2)CCC(=O)N1C	0 (zero if otherwise)

test system: human hepatoma cell line HepG2; experiment: MTS based cytotoxicity assay (counter-screen for selectivity); format: cell-based; settings: 48 h
Procedure: Selectivity was determined by counter-screening against human hepatoma cell line HepG2 in a MTS (3-(4,5-Dimethylthiazol-2-yl)-5-(3-carboxymethoxyphenyl)-2-(4-sulfophenyl)-2H-tetrazolium) based cytotoxicity assay (CellTiter 96® Aqueous One, Promega, Madison, WI) ([Riss et al., 2004]). Briefly, microtiter plates were seeded with 1,500 cells per well in a 384 well plate and incubated for 24 h at 37°C in 5% CO2/95% air atmosphere. The next day, compounds were added at seven different serially diluted concentrations starting at 25 µM d incubated for additional 48 h at stated conditions. MTS solution was next added to each well, incubated for additional 3 h at 37°C, and absorbance was read at 490 nm using BioTek Synergy neo 2 plate reader. Untreated cells served as control. Curve fitting was performed using GraphPad Prism and EC50 value was determined.

Molecule	EC50 [µM]
CN1CCOc2ccccc2CCCCCC2(CCN(C(=O)[C@@H](N)c3ccccc3)CC2)C1=O [DC-9235, CN1CCOC2=C(CCCCCC3(CCN(CC3)C(=O)[C@@H](N)C3=CC=CC=C3)C1=O)C=CC=C2]	> 25
Cc1cc(C)n(Cc2c(C(=O)N3CCC4(CCCCOC[C@@H]5CCCN5C(=O)c5cccc(c5)OC4)CC3)noc2C)n1 [DC-5921, CC1=NN(CC2=C(C)ON=C2C(=O)N2CCC3(CC2)CCCCOC[C@@H]2CCCN2C(=O)C2=CC(OC3)=CC=C2)C(C)=C1]	> 25
CN1CCOc2ccccc2CCCCCC2(CCN(C(=O)[C@H](N)c3ccccc3)CC2)C1=O [DC-9239, CN1CCOC2=C(CCCCCC3(CCN(CC3)C(=O)[C@H](N)C3=CC=CC=C3)C1=O)C=CC=C2]	24.2
CCc1nc2ccccc2c(C(=O)N2CCC3(CCCCOCCNC(=O)c4ccccc4OC3)CC2)c1C [DC-5931, CCC1=NC2=C(C=CC=C2)C(C(=O)N2CCC3(CC2)CCCCOCCNC(=O)C2=C(OC3)C=CC=C2)=C1C]	> 25

test system: P. falciparum Dd2; experiment: Stage-specific activity assay (Giemsa smears, YOYO-1 flow cytometry); format: cell-based, Plasmodium falciparum; settings: synchronized Dd2, compound at 3X EC50 added at 6, 18, 30, 42 hpi
Procedure: P. falciparum Dd2 cell line was synchronized using a combination of 5% sorbitol and magnetic column separation as described ([Roberts et al., 2016]). Cultures at 2% parasitemia and 2% hematocrit were added to microtiter plate wells and measurements began 6 h post-invasion (6 hpi). Hit compounds were added at 3X EC50 concentration at specified time points. Controls are DHA (3X EC50) and untreated cultures. Giemsa-stained thin smears were made for each time point and an aliquot of the culture was fixed for flow cytometric analysis using 0.04% glutaraldehyde in PBS. After fixing and aspirating, cells were permeabilized with 0.25% Triton-100 followed by treatment with RNase (0.05 mg/ml) for 3 h. Next, YOYO 1 (10.24 µM) fluorescent dye was added and samples were analyzed ([Bouillon et al., 2013]) using Beckman Coulter (Indianapolis, IN) CytoFlex S flowcytometer.

Molecule	Stage specific activity
Cc1cc(C)n(Cc2c(C(=O)N3CCC4(CCCCOC[C@@H]5CCCN5C(=O)c5cccc(c5)OC4)CC3)noc2C)n1 [DC-5921, CC1=NN(CC2=C(C)ON=C2C(=O)N2CCC3(CC2)CCCCOC[C@@H]2CCCN2C(=O)C2=CC(OC3)=CC=C2)C(C)=C1]	active in early stages, late Troph and early schizont; also recorded: inhibit the early stages
CCc1nc2ccccc2c(C(=O)N2CCC3(CCCCOCCNC(=O)c4ccccc4OC3)CC2)c1C [DC-5931, CCC1=NC2=C(C=CC=C2)C(C(=O)N2CCC3(CC2)CCCCOCCNC(=O)C2=C(OC3)C=CC=C2)=C1C]	mostly active in early stages; also recorded: inhibit the early stages

test system: Pf (DD2); experiment: Validation dataset: previously performed HTS at University of Central Florida, Chakrabarti Laboratory; format: cell-based, Plasmodium falciparum; settings: class label
Procedure: The validation dataset consists of the results from previously performed HTS in University of Central Florida at the Chakrabarti Laboratory, consisting of natural-products, kinase inhibitors from commercial vendors Asinex (Winston-Salem, NC)and ChemDiv (San Diego, CA) libraries. This dataset contains 4,497 molecules and their inhibition property. […] Using this external validation dataset, the realistic capabilities of the model are evaluated in the validation process. The raw data supporting the conclusions of this manuscript will be made available by the authors, without any restriction, to any qualified researcher (Supplementary Material 4).

Molecule	DD2
C=CCOC(=O)C1=C(C)NC(=S)NC1c1ccc(C(C)(C)C)cc1 (stereo not shown)	0 (zero if otherwise)
COc1ccc(-c2nc3n(n2)C(c2cccnc2)C2=C(CC(C)(C)CC2=O)N3)cc1 (stereo not shown)	0 (zero if otherwise)
C=CCN1C(=O)COc2ccc(NC(=O)c3oc4cc(C)ccc4c3C)cc21	0 (zero if otherwise)
